Reference: US10323043B2, “Derivatives of macrocyclic N-aryl-tricyclopyrimidine-2-amine polyethers as inhibitors of FTL3 and JAK” (PIERRE FABRE MEDICAMENT, priority 2014, dated 2019)

Molecular target: T1, FLT3^D835Y (Homo sapiens, UniProt P36888, D835Y)
T1 construct: purchased Merck Millipore 14-610
T1 sequence (P36888 27-993 D835Y): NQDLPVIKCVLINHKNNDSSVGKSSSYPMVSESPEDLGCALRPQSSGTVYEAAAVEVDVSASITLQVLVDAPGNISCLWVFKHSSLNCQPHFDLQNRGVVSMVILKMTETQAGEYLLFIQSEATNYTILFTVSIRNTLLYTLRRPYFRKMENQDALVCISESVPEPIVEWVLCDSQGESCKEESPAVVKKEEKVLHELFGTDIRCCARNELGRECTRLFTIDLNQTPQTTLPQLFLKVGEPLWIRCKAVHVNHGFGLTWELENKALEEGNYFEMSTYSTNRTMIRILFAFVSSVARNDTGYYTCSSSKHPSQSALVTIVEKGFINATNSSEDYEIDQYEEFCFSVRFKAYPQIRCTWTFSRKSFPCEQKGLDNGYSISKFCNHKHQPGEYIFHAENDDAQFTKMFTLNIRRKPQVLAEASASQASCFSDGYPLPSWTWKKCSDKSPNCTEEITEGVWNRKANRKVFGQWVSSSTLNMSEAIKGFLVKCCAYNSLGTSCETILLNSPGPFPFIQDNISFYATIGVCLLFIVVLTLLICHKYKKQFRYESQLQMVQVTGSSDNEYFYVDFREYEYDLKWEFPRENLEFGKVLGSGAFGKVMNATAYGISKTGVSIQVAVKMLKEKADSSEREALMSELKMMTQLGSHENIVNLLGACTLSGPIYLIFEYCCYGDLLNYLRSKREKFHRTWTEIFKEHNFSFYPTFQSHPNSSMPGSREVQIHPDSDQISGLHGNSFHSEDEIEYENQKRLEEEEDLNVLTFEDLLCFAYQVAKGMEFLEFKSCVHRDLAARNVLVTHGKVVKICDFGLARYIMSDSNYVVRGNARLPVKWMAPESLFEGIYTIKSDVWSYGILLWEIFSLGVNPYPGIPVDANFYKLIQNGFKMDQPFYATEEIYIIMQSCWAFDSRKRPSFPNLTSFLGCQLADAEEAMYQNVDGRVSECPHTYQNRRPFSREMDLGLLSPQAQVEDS
Test: LanthaScreen TR-FRET binding test, FLT3 D835Y
Conditions: FLT3^D835Y 15 nM, kinase tracer 236 3 nM, 25° C., 1 hour; read-out: Inhibition (IC50) of FLT3^D835Y enzyme
Protocol: FLT3 (#PV3182), JAK2 (#PV4210) and JAK3 (#PV3855) recombinant enzymes were purchased from Life Technologies. FLT3-ITD (#0778-0000-1) and FLT3^D835Y (#14-610) proteins were purchased from ProQinase and Merck Millipore, respectively. All the tests were carried out in 384-well plates. The principle of these binding tests is based on the LanthaScreen® TR-FRET methodology from Life Technologies.
The reaction mixture (15 μL total volume) contains the following compounds: 15 nM FLT3, FLT3-ITD or FLT3^D835Y, 3 nM kinase tracer 236 (Life Technologies, #PV5592) and 6 nM LanthaScreen® anti-GST antibody coupled to a europium chelate (Life Technologies, #PV5594) for FLT3-ITD and FLT3^D835Y or 6 nM LanthaScreen® anti-His antibody coupled to a europium chelate (Life Technologies, #PV5596) for FLT3.
The compounds are evaluated at 8 different concentrations prepared by making dilutions from a starting 10 mM stock solution in dimethylsulfoxide (DMSO) (Sigma, #D8418). The final DMSO concentration in the test is 1%. The reaction is carried out at 25° C. for 1 hour and detected on the EnVision® reader (Perkin Elmer) according to the recommendations of the supplier, Life Technologies.
The results are presented (Table 1) as the concentration values of the compound at which 50% of the kinase activity is inhibited, IC50 (μM), generated using the PRISM software (GraphPad).

| Structure (SMILES) | IC50 [nM] |
| --- | --- |
| CN1CC=C(c2ccc3cc2OCCOCCOc2ccc4c(c2)-c2nc(ncc2CC4)N3)CC1 [Compound 23] | 4.5 |
| c1cc(OCCN2CCCC2)c2cc1Nc1ncc3c(n1)-c1cc(ccc1CC3)OCCOCCO2 [Compound 14] | 3.2 |
| c1cc(N2CC3CNCC3C2)c2cc1Nc1ncc3c(n1)-c1cc(ccc1CC3)OCCOCCO2 (stereo not shown) [Compound 29] | 1.9 |
| OC1CCN(c2ccc3cc2OCCOCCOc2ccc4c(c2)-c2nc(ncc2CC4)N3)CC1 [Compound 19] | 5.3 |
| CN1CCN(c2ccc3cc2OCCOCCOc2ccc4c(c2)-c2nc(ncc2CC4)N3)CC1(C)C [Compound 40] | 1 |
| c1cc(N2CCNCC2)c2cc1Nc1ncc3c(n1)-c1cc(ccc1CC3)OCCOCCO2 [Compound 5] | 0.66 |
| CN1CCN(c2ccc3cc2OCCOCCOc2ccc4c(c2)-c2nc(ncc2CC4)N3)CC1 [Compound 3] | 3 |
| CN(C)C1CCN(c2ccc3cc2OCCOCCOc2ccc4c(c2)-c2nc(ncc2CC4)N3)C1 (stereo not shown) [Compound 30] | 3.2 |
| c1cc(N2CCC(N3CCOCC3)C2)c2cc1Nc1ncc3c(n1)-c1cc(ccc1CC3)OCCOCCO2 (stereo not shown) [Compound 7] | 7.2 |
| c1cc(N2CCC(N3CCCCC3)CC2)c2cc1Nc1ncc3c(n1)-c1cc(ccc1CC3)OCCOCCO2 [Compound 10] | 1.1 |
